In US20140249139A1, “Quinazoline Derivatives” (NOVARTIS AG, priority 2011, published 2014):

Experiments:
PI3K alpha = molecular target: T1, PI3K alpha (Homo sapiens, UniProt P42336); assay: Enzymatic PI3K alpha isoform inhibition (lipid kinase activity, Kinase-Glo); type: biochemical; conditions: enzymatic assay
T1 construct: for the p110-a subunit (with a deletion of the first 20 amino acids) are generated; His tag (C); made in house; host or cells: baculovirus BV1075; Tn5 (Trichoplusia ni) or TiniPro insect cells
T1 sequence (P42336 with tags, fused parts or gaps limits assumed, species assumed): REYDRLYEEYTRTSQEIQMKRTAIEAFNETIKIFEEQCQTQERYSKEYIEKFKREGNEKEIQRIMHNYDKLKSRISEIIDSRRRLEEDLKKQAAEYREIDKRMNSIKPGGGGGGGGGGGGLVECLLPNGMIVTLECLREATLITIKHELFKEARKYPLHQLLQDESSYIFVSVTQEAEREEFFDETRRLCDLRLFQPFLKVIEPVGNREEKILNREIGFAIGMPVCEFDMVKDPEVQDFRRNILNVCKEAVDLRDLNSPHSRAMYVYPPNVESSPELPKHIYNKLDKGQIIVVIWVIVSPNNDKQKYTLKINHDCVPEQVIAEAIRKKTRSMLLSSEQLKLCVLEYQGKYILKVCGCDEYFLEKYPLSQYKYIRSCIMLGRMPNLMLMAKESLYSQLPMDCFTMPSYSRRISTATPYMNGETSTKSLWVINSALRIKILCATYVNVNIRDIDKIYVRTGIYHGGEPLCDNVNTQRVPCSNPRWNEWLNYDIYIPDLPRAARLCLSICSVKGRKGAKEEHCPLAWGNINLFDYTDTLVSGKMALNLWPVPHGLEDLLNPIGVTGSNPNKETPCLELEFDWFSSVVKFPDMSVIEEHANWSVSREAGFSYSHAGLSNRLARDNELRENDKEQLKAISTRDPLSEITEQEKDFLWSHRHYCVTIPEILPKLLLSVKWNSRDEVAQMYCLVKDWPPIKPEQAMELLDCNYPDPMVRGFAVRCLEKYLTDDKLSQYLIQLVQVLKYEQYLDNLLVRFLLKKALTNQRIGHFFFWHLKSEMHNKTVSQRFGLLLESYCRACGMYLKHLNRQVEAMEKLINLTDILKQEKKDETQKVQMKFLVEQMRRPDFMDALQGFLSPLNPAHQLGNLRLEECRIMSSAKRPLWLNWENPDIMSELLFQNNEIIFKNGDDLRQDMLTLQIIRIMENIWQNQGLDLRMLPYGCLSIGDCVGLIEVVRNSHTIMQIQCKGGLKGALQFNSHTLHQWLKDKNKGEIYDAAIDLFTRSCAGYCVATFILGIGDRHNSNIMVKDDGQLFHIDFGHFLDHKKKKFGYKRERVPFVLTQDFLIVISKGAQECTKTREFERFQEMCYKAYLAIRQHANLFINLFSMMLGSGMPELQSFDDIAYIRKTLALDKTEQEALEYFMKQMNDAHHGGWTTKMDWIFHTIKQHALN
Description: (§1) The components of the assay are added per well as follows:
(§2) IC50 is determined by a four parameter curve fitting routine that comes along with “excel fit”.
(§3) Yet alternatively, for an ATP depletion assay, compounds of the formula I to be tested are dissolved in DMSO and directly distributed into a white 384-well plate at 0.5 μl per well. To start the reaction, 10 μl of 10 nM PI3 kinase and 5 μg/ml 1-alpha-phosphatidylinositol (PI) are added into each well followed by 10 μl of 2 μM ATP. The reaction is performed until approx 50% of the ATP is depleted, and then stopped by the addition of 20 μl of Kinase-Glo solution (Promega Corp., Madison, Wis., USA). The stopped reaction is incubated for 5 minutes and the remaining ATP is then detected via luminescence. IC50 values are then determined.

PI3K delta = molecular target: T2, PI3K delta (Homo sapiens, UniProt O00329); assay: Enzymatic PI3K delta isoform inhibition (lipid kinase activity, Kinase-Glo); type: biochemical; conditions: enzymatic assay
T2 construct: for the full-length p110-d subunit are generated and fused by overlapping PCR; His tag (C); made in house; host or cells: baculovirus BV1060; Tn5 (Trichoplusia ni) or TiniPro insect cells
T2 sequence (O00329 with tags, fused parts or gaps limits assumed, species assumed): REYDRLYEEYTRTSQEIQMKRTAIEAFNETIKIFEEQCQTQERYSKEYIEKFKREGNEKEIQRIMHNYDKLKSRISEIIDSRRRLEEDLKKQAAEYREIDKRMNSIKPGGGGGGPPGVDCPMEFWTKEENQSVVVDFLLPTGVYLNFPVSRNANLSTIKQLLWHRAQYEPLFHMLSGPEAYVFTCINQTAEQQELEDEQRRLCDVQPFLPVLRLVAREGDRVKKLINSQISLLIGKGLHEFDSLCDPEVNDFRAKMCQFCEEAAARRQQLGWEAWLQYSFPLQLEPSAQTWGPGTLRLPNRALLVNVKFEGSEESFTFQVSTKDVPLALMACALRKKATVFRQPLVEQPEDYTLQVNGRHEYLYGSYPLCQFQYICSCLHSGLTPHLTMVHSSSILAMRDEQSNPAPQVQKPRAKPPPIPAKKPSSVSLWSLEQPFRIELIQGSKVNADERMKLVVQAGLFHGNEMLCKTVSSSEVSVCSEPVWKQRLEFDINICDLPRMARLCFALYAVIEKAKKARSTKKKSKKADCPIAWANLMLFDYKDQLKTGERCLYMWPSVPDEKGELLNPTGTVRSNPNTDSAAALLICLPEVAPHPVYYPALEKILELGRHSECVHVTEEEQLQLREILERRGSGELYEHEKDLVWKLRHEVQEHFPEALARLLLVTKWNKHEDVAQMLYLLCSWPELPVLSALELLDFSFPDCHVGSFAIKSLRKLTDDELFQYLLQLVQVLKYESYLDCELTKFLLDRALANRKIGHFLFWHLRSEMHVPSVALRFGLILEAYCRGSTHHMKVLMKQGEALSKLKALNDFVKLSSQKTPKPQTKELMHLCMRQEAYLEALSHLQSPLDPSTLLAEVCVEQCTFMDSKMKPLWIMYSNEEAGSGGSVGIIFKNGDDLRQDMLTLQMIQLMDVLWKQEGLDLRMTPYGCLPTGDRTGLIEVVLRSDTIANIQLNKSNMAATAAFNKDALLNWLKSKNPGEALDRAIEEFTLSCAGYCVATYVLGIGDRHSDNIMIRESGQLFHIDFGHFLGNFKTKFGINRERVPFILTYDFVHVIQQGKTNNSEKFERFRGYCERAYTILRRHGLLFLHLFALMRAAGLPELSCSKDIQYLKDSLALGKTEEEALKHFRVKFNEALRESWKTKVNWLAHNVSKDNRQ
Description: as §1, §2, §3

SMILES | IC50 (PI3K alpha) [µM] | IC50 (PI3K delta) [µM]
CNc1ccc(-c2ccc3ncnc(-c4cccc(C(=O)N5CCN(C)CC5)c4)c3c2)cn1 [Example 41] | 0.708 | 0.0205
COc1ccc(-c2ccc3ncnc(-c4cncc(C(=O)N5C[C@@H]6C[C@H]5CN6)c4)c3c2)cc1C(F)(F)F [Example 85, (1S,4S)-2,5-Diaza-bicyclo[2.2.1]hept-2-yl-{5-[6-(4-methoxy-3-trifluoromethyl-phenyl)-quinazolin-4-yl]-pyridin-3-yl}-methanone] | 0.793 | 0.007
COc1ccc(-c2ccc3ncnc(-c4cccc(C(=O)N5CCOC(C)(C)C5)c4)c3c2)cn1 [Example 95, (2,2-Dimethyl-morpholin-4-yl)-{3-[6-(6-methoxy-pyridin-3-yl)-quinazolin-4-yl]-phenyl}-methanone] | 0.281 | 0.009
COc1ccc(-c2ccc3ncnc(-c4cc(C)cc(C(=O)N5CCN(C(C)=O)CC5)c4)c3c2)cn1 [Example 108, 1-(4-{3-[6-(6-Methoxy-pyridin-3-yl)-quinazolin-4-yl]-5-methyl-benzoyl}-piperazin-1-yl)-ethanone] | 0.158 | 0.007
CN1CCN(C(=O)c2cccc(-c3ncnc4ccc(-c5ccc(N6CCCC6)nc5)cc34)c2)CC1 [Example 15] | 1.23 | 0.017
COc1ccc(-c2ccc3ncnc(-c4cccc(C(=O)N5CCN(CC(F)(F)F)CC5)c4)c3c2)cn1 [Example 87, {3-[6-(6-Methoxy-pyridin-3-yl)-quinazolin-4-yl]-phenyl}-[4-(2,2,2-trifluoro-ethyl)-piperazin-1-yl]-methanone] | 0.126 | < 0.003
COc1ccc(-c2ccc3ncnc(-c4cncc(C(=O)N5CCNCC(F)(F)C5)c4)c3c2)cc1C(F)(F)F [Example 83, (6,6-Difluoro-[1,4]diazepan-1-yl)-{5-[6-(4-methoxy-3-trifluoromethyl-phenyl)-quinazolin-4-yl]-pyridin-3-yl}-methanone] | 0.904 | 0.021
COc1ccc(-c2ccc3ncnc(-c4cncc(C(=O)N5CCNC[C@@H]5C)c4)c3c2)cc1C(F)(F)F [Example 84, {5-[6-(4-Methoxy-3-trifluoromethyl-phenyl)-quinazolin-4-yl]-pyridin-3-yl}-((S)-2-methyl-piperazin-1-yl)-methanone] | 0.558 | 0.0095
COc1ncc(-c2ccc3ncnc(-c4cncc(C(=O)N5CCS(=O)(=O)CC5)c4)c3c2)cc1C#N [Example 71] | 0.55 | 0.008
COc1ncc(-c2ccc3ncnc(-c4cncc(C(=O)N5CCOCC5)c4)c3c2)cc1C(F)(F)F [Example 68] | 0.097 | 0.003
COc1ccc(-c2ccc3ncnc(-c4cccc(C(=O)N5CCC(O)CC5)c4)c3c2)cn1 [Example 94, (4-Hydroxy-piperidin-1-yl)-{3-[6-(6-methoxy-pyridin-3-yl)-quinazolin-4-yl]-phenyl}-methanone] | 0.174 | 0.006
COc1ncc(-c2ccc3ncnc(-c4ccnc(C(=O)N5CCN(C(C)=O)CC5)c4)c3c2)cc1C(F)(F)F [Example 114, 1-(4-{4-[6-(6-Methoxy-5-trifluoromethyl-pyridin-3-yl)-quinazolin-4-yl]-pyridine-2-carbonyl}-piperazin-1-yl)-ethanone] | 0.071 | 0.003
COc1ccc(-c2ccc3ncnc(-c4ccc(C)c(C(=O)N5CCN(C(C)C)CC5)c4)c3c2)cn1 [Example 116, (4-Isopropyl-piperazin-1-yl)-{5-[6-(6-methoxy-pyridin-3-yl)-quinazolin-4-yl]-2-methyl-phenyl}-methanone] | 0.306 | 0.014
CCC(=O)N1CCN(C(=O)c2cccc(-c3ncnc4ccc(-c5cnc(OC)c(C#N)c5)cc34)c2)CC1 [Example 96, 2-Methoxy-5-{4-[3-(4-propionyl-piperazine-1-carbonyl)-phenyl]-quinazolin-6-yl}-nicotinonitrile] | 0.316 | 0.006
COc1ncc(-c2ccc3ncnc(-c4cccc(C(=O)N5CCNCC5)c4)c3c2)cc1C#N [Example 35] | 0.262 | 0.007
COc1ccc(-c2ccc3ncnc(-c4cccc(C(=O)N5CCNC[C@@H]5C)c4)c3c2)cn1 [Example 98, {3-[6-(6-Methoxy-pyridin-3-yl)-quinazolin-4-yl]-phenyl}-((S)-2-methyl-piperazin-1-yl)-methanone] | 0.102 | 0.0035
CN1CCN(C(=O)c2cccc(-c3ncnc4ccc(-c5cnc(N(C)C)nc5)cc34)c2)CC1 [Example 11] | 1.07 | 0.028
CCOc1ncc(-c2ccc3ncnc(-c4cccc(C(=O)N5CCN(C(C)=O)CC5)c4)c3c2)cn1 [Example 5] | 1.32 | 0.0085
COc1ccc(-c2ccc3ncnc(-c4cncc(C(=O)N5CCNC(C)(C)C5)c4)c3c2)cn1 [Example 79, (3,3-Dimethyl-piperazin-1-yl)-{5-[6-(6-methoxy-pyridin-3-yl)-quinazolin-4-yl]-pyridin-3-yl}-methanone] | 0.359 | 0.01

SMILES | IC50 (PI3K alpha) [µM] | IC50 (PI3K delta) [µM]
COc1ncc(-c2ccc3ncnc(-c4cncc(C(=O)N5CCN(C(C)=O)CC5)c4)c3c2)cc1C#N [Example 53] | 0.472 | 0.007
COc1ccc(-c2ccc3ncnc(-c4cncc(C(=O)N5C[C@@H]6C[C@H]5CN6C)c4)c3c2)cn1 [Example 77, {5-[6-(6-Methoxy-pyridin-3-yl)-quinazolin-4-yl]-pyridin-3-yl}-((1S,4S)-5-methyl-2,5-diaza-bicyclo[2.2.1]hept-2-yl)-methanone] | 0.573 | 0.014
COc1ncc(-c2ccc3ncnc(-c4cccc(C(=O)N5CCN(C(C)=O)CC5)c4)c3c2)cn1 [Example 4] | 1.16 | 0.009
CN1CCN(C(=O)c2cccc(-c3ncnc4ccc(-c5ccc(S(N)(=O)=O)c(C(F)(F)F)c5)cc34)c2)CC1 [Example 46] | 5.29 | 0.0235
CCOc1ccc(-c2ccc3ncnc(-c4cccc(C(=O)N5CCN(C)CC5)c4)c3c2)cn1 [Example 16] | 0.695 | 0.0125
COc1ncc(-c2ccc3ncnc(-c4cccc(C(=O)N5CCN(C(C)=O)CC5)c4)c3c2)cc1F [Example 3] | 0.062 | < 0.003
CN1CCN(C(=O)c2cccc(-c3ncnc4ccc(-c5ccc(N6CCNCC6)nc5)cc34)c2)CC1 [Example 18] | 1.29 | 0.0421
COc1ncc(-c2ccc3ncnc(-c4cncc(C(=O)N5CCN(C(C)=O)CC5)c4)c3c2)cc1F [Example 51] | 0.118 | 0.0035
COc1ccc(-c2ccc3ncnc(-c4cccc(C(=O)N5CCN(C)CC5)c4)c3c2)cc1C#N [Example 45] | 1.2 | 0.0365
COc1ncc(-c2ccc3ncnc(-c4cc(C(=O)N5CCN(C(C)=O)CC5)cc(C(F)(F)F)c4)c3c2)cn1 [Example 104, 1-(4-{3-[6-(2-Methoxy-pyrimidin-5-yl)-quinazolin-4-yl]-5-trifluoromethyl-benzoyl}-piperazin-1-yl)-ethanone] | 3.29 | 0.038
COc1ncc(-c2ccc3ncnc(-c4cccc(C(=O)N5CCN(C)C(C)(C)C5)c4)c3c2)cn1 [Example 26] | 0.614 | 0.0178
COc1ncc(-c2ccc3ncnc(-c4cncc(C(=O)N5CCOC(C)(C)C5)c4)c3c2)cc1F [Example 63] | 0.505 | 0.006
COc1ccc(-c2ccc3ncnc(-c4cncc(C(=O)N5CCN(C(C)=O)CC5)c4)c3c2)cn1 [Example 52] | 0.189 | 0.0075
COc1ccc(-c2ccc3ncnc(-c4cncc(C(=O)N5CCOCC5)c4)c3c2)cc1C(F)(F)F [Example 82, {5-[6-(4-Methoxy-3-trifluoromethyl-phenyl)-quinazolin-4-yl]-pyridin-3-yl}-morpholin-4-yl-methanone] | 1.33 | 0.0215
COc1ccc(-c2ccc3ncnc(-c4cccc(C(=O)N5CCN(C)C(C)(C)C5)c4)c3c2)cn1 [Example 89, {3-[6-(6-Methoxy-pyridin-3-yl)-quinazolin-4-yl]-phenyl}-(3,3,4-trimethyl-piperazin-1-yl)-methanone] | 0.099 | 0.004
COc1ncc(-c2ccc3ncnc(-c4cc(C(=O)N5CCN(C(C)=O)CC5)cc(C(F)(F)F)c4)c3c2)cc1C#N [Example 103, 5-{4-[3-(4-Acetyl-piperazine-1-carbonyl)-5-trifluoromethyl-phenyl]-quinazolin-6-yl}-2-methoxy-nicotinonitrile] | 2.12 | 0.008
CNc1ncc(-c2ccc3ncnc(-c4cccc(C(=O)N5CCN(C)CC5)c4)c3c2)cc1C [Example 40, {3-[6-(5-Methyl-6-methylamino-pyridin-3-yl)-quinazolin-4-yl]-phenyl}-(4-methyl-piperazin-1-yl)-methanone] | 0.27 | 0.003
COc1ccc(-c2ccc3ncnc(-c4cncc(C(=O)N5CCN(C)C(C)(C)C5)c4)c3c2)cn1 [Example 78, {5-[6-(6-Methoxy-pyridin-3-yl)-quinazolin-4-yl]-pyridin-3-yl}-(3,3,4-trimethyl-piperazin-1-yl)-methanone] | 0.123 | 0.0045
CC1(C)CN(C(=O)c2cccc(-c3ncnc4ccc(-c5ccc(N)nc5)cc34)c2)CCO1 [Example 32] | 0.174 | 0.007
